For one assay, the target named is T1, hP2X2/3H (Homo sapiens, UniProt P56373+Q9UBL9).
T1 construct: expressed in transfected cells; host or cells: e.g. HEK293 or 1321N1
T1 sequence (Q9UBL9 1-471): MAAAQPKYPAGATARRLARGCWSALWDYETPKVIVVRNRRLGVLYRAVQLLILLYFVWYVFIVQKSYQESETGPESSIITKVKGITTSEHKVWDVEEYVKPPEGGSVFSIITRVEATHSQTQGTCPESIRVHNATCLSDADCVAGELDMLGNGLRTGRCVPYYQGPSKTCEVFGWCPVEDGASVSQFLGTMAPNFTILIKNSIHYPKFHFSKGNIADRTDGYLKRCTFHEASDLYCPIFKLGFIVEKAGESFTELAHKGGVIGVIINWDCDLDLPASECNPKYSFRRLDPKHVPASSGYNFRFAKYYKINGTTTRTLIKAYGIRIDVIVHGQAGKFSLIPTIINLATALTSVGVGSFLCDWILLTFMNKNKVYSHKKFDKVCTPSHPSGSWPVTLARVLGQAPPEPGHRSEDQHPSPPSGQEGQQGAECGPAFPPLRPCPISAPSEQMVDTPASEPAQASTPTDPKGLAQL
T1 sequence (P56373 1-397): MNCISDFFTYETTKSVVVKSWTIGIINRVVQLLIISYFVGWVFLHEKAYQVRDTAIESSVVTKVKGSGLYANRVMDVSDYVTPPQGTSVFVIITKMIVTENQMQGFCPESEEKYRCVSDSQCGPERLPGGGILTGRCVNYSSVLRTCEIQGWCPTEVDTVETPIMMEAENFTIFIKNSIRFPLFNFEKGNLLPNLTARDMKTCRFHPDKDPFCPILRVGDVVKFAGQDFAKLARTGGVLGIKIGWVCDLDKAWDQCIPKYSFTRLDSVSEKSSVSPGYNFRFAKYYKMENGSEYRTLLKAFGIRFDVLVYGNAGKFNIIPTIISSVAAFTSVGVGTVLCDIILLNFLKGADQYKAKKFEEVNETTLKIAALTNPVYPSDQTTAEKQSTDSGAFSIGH
Nature of the assay: Calcium uptake assay (P2X antagonist assay), P2X2/3 heteromer. It is filed as cell-based. Particulars: hP2X2/3H. The text has this: (§1) The human P2X2/3 chimera clone is created as described by Neelands et al, and then cloned into an expression vector as above. Receptors are expressed in cells (e.g., HEK293 or 1321N1 (obtained from the ECACC)) via transient transfection using standard lipid mediated transfection, or by creation of stable transfectants for each receptor. For expression of the P2X2/3 heteromeric receptor, the P2X3 expression vector is stably transfected into a cell line already stably expressing P2X2. P2X2/3 heteromer function is isolated using pharmacological methods. Cell lines are maintained in DMEM+5% Glutamax, the appropriate level of selective antibiotic, and 10% heat inactivated FBS.
(§2) Functional activity of compounds at the P2X receptor is determined by measuring their ability to inhibit agonist-induced calcium influx. Compounds are tested for antagonist activity against the P2X2/3 chimera, the P2X3 homomer, or the P2X2/3 heteromer. At the start of each screening day, the agonist EC50 is determined. Compound % inhibition or IC50s are subsequently determined using a predetermined agonist concentration (EC50-90 depending on cell line) as a stimulus. The agonists used are αβMeATP, ATP, or other ATP analogs. Compounds may be tested at concentrations ranging from 1 pM to 10 μM.
(§3) To test for antagonist activity, cells expressing the appropriate receptor are seeded onto 96 or 384 well plates 18-24 hours prior to assay. […] Plates are incubated at 37° C. and then equilibrated at room temperature. Antagonism of agonist-induced calcium influx is measured using a fluorescent imaging plate reader (e.g. FLIPR^TETRA, Molecular Devices, Sunnyvale, Calif.). The assay comprises two stages: a pre-treatment phase followed by a treatment phase. Compounds may be tested as follows: For the pre-treatment phase, 50 μL of 3× concentration of test compound in HBSS is added to cells containing […], of dye loading media to achieve a final concentration of 1× test compound. For the treatment phase, at a set interval after pre-treatment (1-30 minutes), 50 μL of 1× test compound plus 4× agonist solution is added, resulting in a final concentration of 1× compound and 1× agonist. […] Responses are measured as (peak fluorescence after agonist addition) minus (baseline fluorescence prior to treatment). Percent inhibition is calculated as follows:
(§4) [formula] IC50 values are determined by analyzing dose response data in a 4 parameter logistic fit using GraphPad Prizm.

The target in a further assay is T2, hP2X3 (Homo sapiens, UniProt P56373).
T2 construct: expressed in transfected cells; host or cells: e.g. HEK293 or 1321N1
T2 sequence (P56373 1-397): T1 sequence (P56373 1-397)
Put plainly: Calcium uptake assay (P2X antagonist assay), P2X3 homomer. The format is cell-based. The following applies: hP2X3.
Excerpt: as §1, §2, §3, §4

[1] abbreviates: calcium uptake assay, read-out: IC50 hP2X2/3H (nM), Ca Influx.
Setting [2] is: calcium uptake assay, read-out: IC50 hP2X3 (nM), Ca Influx.
The mark [3] stands for this setting: Ca influx (calcium uptake assay), read-out: IC50 hP2X2/3H.
Setting [4] is: Ca influx (calcium uptake assay), read-out: IC50 hP2X3.

Here are results for 32 molecules from patent US8946439B2, “Amide compounds, compositions and uses thereof” (Evotec AG, priority 2008, dated 2015).

Like-named read-outs stand apart in the source and are kept apart here.

As to `Cc1ccc(CNC(=O)c2cc(-c3ccc(C)c(F)c3)cc(S(C)(=O)=O)c2)cn1` [Compound 137], the IC50 at hP2X2/3H (setting [1]) and on hP2X3 (setting [2]) was 100 to 500 nM throughout.

Regarding `Cc1ccc(-c2cc(C(=O)N[C@H](C)c3ccc(C)nc3)cc(C(O)c3ccccc3)c2)nc1` (stereo partly shown) [Compound 276], the IC50 on hP2X2/3H (setting [3]) and on hP2X3 (setting [4]) was < 100 nM in each case.

For the molecule `Cc1ccc(-c2cc(C(=O)N[C@H](C)c3ccc(C(F)(F)F)nc3)cc(C(=O)N3CC[C@@H](O)C3)c2)nc1` [Compound 150], the IC50 at hP2X2/3H (setting [1]) and at hP2X3 (setting [2]) was < 100 nM in each case.

Take `Cc1ccc(-c2cc(C(=O)NCc3ncc(Cl)cc3Cl)cc(C(=O)N3CCCC3)c2)cc1` [Compound 81]: the IC50 on hP2X2/3H (setting [1]) and on hP2X3 (setting [2]) was < 100 nM each time.

Regarding `Cc1ccc(-c2cc(C(=O)NCc3ccc(C)c(S(C)(=O)=O)c3)cc(C(=O)N3CCCC3)c2)cc1` [Compound 71], the IC50 on hP2X2/3H (setting [1]) and on hP2X3 (setting [2]) was < 100 nM throughout.

In the case of `CCS(=O)(=O)c1cc(C(=O)N[C@H](C)c2ccc(C)nc2)cc(-c2ccc(C)cc2)c1` [Compound 209], the IC50 at hP2X2/3H (setting [3]) and on hP2X3 (setting [4]) was < 100 nM in each case.

As for `Cc1ccc(-c2cc(C(=O)NCc3ccc(C)nc3)cc(C(=O)N3CC(O)C3)c2)cc1` [Compound 132], the IC50 at hP2X2/3H (setting [1]) and at hP2X3 (setting [2]) was < 100 nM in each case.

For the molecule `Cc1ccc(CNC(=O)c2cc(-c3ccc(Cl)c(Cl)c3)cc(S(C)(=O)=O)c2)cn1` [Compound 112], the IC50 at hP2X2/3H (setting [1]) and at hP2X3 (setting [2]) was > 1000 nM throughout.

Take `Cc1ccc(-c2cc(C(=O)NC(C)c3ccc4c(c3)OCO4)cc(C(=O)N3CCCC3)c2)cc1` (stereo not shown) [Compound 97]: the IC50 at hP2X2/3H (setting [1]) and on hP2X3 (setting [2]) was 100 to 500 nM each time.

`Cc1ccc(-c2cc(Oc3nc(C)cs3)cc(C(=O)N[C@H](C)c3ccc(C)nc3)c2)c(C#N)c1` [Compound 373]: the IC50 on hP2X2/3H (setting [3]) and at hP2X3 (setting [4]) was < 100 nM each time.

Consider `Cc1ccc(-c2cc(C(=O)NCc3ccc(C)nc3)cc(C(F)(F)F)c2)cc1` [Compound 204], for which the values for the IC50 at hP2X2/3H (setting [3]) and at hP2X3 (setting [4]) were 501 to 1000 nM and > 1000 nM, respectively.

Regarding `Cc1ccc(-c2cc(Oc3ccccn3)cc(C(=O)N[C@H](C)c3ccc(C)nc3)c2)cc1` [Compound 242, (R)-4′-Methyl-N-(1-(6-methylpyridin-3-yl)ethyl)-5-(pyridin-2-yloxy)biphenyl-3-carboxamide], the IC50 at hP2X2/3H (setting [3]) is < 100 nM; on hP2X3 (setting [4]) it was 100 to 500 nM.

On to `Cc1ccc(-c2cc(C(=O)NCc3ccc(C)nc3)cc(C(=O)N3CCCc4ccccc43)c2)cc1` [Compound 188], for which the IC50 on hP2X2/3H (setting [1]) and at hP2X3 (setting [2]) was 100 to 500 nM in each case.

Take `COCc1cc(C(=O)NCc2cnc(C)nc2)cc(-c2ccc(C)cn2)c1` [Compound 275]: the IC50 on hP2X2/3H (setting [3]) is 501 to 1000 nM; at hP2X3 (setting [4]), 100 to 500 nM.

With `COCc1cc(C(=O)N[C@H](C)c2cnc(C)nc2)cc(-c2ccc(C)cn2)c1` [Compound 274, (R)-3-(Methoxymethyl)-5-(5-methylpyridin-2-yl)-N-(1-(2-methylpyrimidin-5-yl)ethyl)benzamide], the IC50 at hP2X2/3H (setting [3]) and on hP2X3 (setting [4]) was 100 to 500 nM in each case.

`Cc1ccc(-c2cc(C(=O)O)cc(C(=O)N[C@@H](C)CO)c2)cc1` [Compound 4]: the IC50 on hP2X2/3H (setting [1]) and on hP2X3 (setting [2]) was > 1000 nM in each case.

With `Cc1ccc(-c2cc(C(=O)NCc3ccc(C)nc3)cc(S(=O)(=O)C(C)C)c2)cc1` [Compound 199], the IC50 on hP2X2/3H (setting [3]) and at hP2X3 (setting [4]) was < 100 nM throughout.

Take `Cc1ccc(-c2cc(C(=O)NCc3cnc(C)nc3)cc(C(=O)N3CCCC3)c2)nc1` [Compound 28, 3-(5-Methylpyridin-2-yl)-N-((2-methylpyrimidin-5-yl)methyl)-5-(pyrrolidine-1-carbonyl)benzamide]: the results for the IC50 at hP2X2/3H (setting [1]) and on hP2X3 (setting [2]) were 100 to 500 nM and < 100 nM, respectively.

In the case of `Cc1ccc(-c2cc(C(=O)NCc3ccc(C)[n+]([O-])c3)cc(S(C)(=O)=O)c2)cc1` [Compound 256, 2-Methyl-5-((4′-methyl-5-(methylsulfonyl)biphenyl-3-ylcarboxamido)methyl)pyridine 1-oxide], the IC50 at hP2X2/3H (setting [3]) and on hP2X3 (setting [4]) was < 100 nM in each case.

On to `Cc1ccc(-c2cc(C(=O)NCc3ccc(C)nc3)cc(C(F)(F)F)c2)nc1` [Compound 202], for which the IC50 is > 1000 nM at hP2X2/3H (setting [3]) and 100 to 500 nM on hP2X3 (setting [4]).

With `Cc1ccc(-c2cc(Oc3ncccn3)cc(C(=O)NCc3ccc(C)nc3)c2)cc1` [Compound 233], the IC50 at hP2X2/3H (setting [3]) and at hP2X3 (setting [4]) was 100 to 500 nM each time.

Consider `CCCS(=O)(=O)c1cc(C(=O)N[C@@H](C)CN2CCOCC2)cc(-c2ccc(C)cc2)c1` [Compound 70], for which the values for the IC50 on hP2X2/3H (setting [1]) and at hP2X3 (setting [2]) were 100 to 500 nM and < 100 nM, respectively.

As for `Cc1ccc(-c2cc(C(=O)N[C@H](C)c3cnn4c3COCC4)cc(C(=O)N3CCCC3)c2)cc1` [Compound 110], the IC50 at hP2X2/3H (setting [1]) is > 1000 nM; at hP2X3 (setting [2]) it was 100 to 500 nM.

For `CCCS(=O)(=O)c1cc(C(=O)NCc2ccc(C(F)(F)F)nc2)cc(-c2ccc(C)cc2)c1` [Compound 44], the IC50 at hP2X2/3H (setting [1]) and on hP2X3 (setting [2]) was 100 to 500 nM throughout.

On to `Cc1ccc(-c2cc(C(=O)N[C@H](C)c3cnn(C)c3Cl)cc(C(=O)N3CCCC3)c2)cc1` [Compound 108, (R)—N-(1-(5-Chloro-1-methyl-1H-pyrazol-4-yl)ethyl)-4′-methyl-5-(pyrrolidine-1-carbonyl)biphenyl-3-carboxamide], for which the IC50 on hP2X2/3H (setting [1]) and on hP2X3 (setting [2]) was < 100 nM throughout.

In the case of `Cc1ccc(-c2cc(OCC3CCCO3)cc(C(=O)N[C@H](C)c3ccc(C)nc3)c2)cc1` (stereo partly drawn) [Compound 310, 4′-Methyl-N—((R)-1-(6-methylpyridin-3-yl)ethyl)-5-((tetrahydrofuran-2-yl)methoxy)biphenyl-3-carboxamide], the IC50 on hP2X2/3H (setting [3]) and on hP2X3 (setting [4]) was < 100 nM throughout.

As for `Cc1ccc(-c2cc(C(=O)NCc3cnc(C)nc3)cc(C(=O)NCc3cnc(C)nc3)c2)cc1` [Compound 16, 4′-Methyl-N3,N5-bis((2-methylpyrimidin-5-yl)methyl)biphenyl-3,5-dicarboxamide], the IC50 at hP2X2/3H (setting [1]) and at hP2X3 (setting [2]) was 100 to 500 nM throughout.

In the case of `Cc1ccc(-c2cc(OCC3COCCO3)cc(C(=O)N[C@H](C)c3ccc(C)nc3)c2)cc1` (stereo partly shown) [Compound 326], the IC50 at hP2X2/3H (setting [3]) was 100 to 500 nM; at hP2X3 (setting [4]), < 100 nM.

On to `COCCOc1cc(C(=O)N[C@H](C)c2cnc(C)nc2)cc(-c2ccc(C)cn2)c1` [Compound 266], for which the IC50 at hP2X2/3H (setting [3]) was 100 to 500 nM; at hP2X3 (setting [4]), < 100 nM.

For the molecule `Cc1ccc(-c2cc(Oc3ccccn3)cc(C(=O)N[C@H](C)c3ccc(C)nc3)c2)c(C#N)c1` [Compound 259], the IC50 at hP2X2/3H (setting [3]) and at hP2X3 (setting [4]) was < 100 nM in each case.

As for `Cc1ccc(-c2cc(C(=O)N[C@@H](C)CO)cc(C(=O)N[C@@H](C)CO)c2)cc1` [Compound 5], the IC50 is 501 to 1000 nM at hP2X2/3H (setting [1]) and > 1000 nM on hP2X3 (setting [2]).

Regarding `CCCS(=O)(=O)c1cc(C(=O)N[C@H](C)c2cnc(C)nc2)cc(-c2ccc(C)cc2)c1` [Compound 55], the IC50 at hP2X2/3H (setting [1]) and on hP2X3 (setting [2]) was < 100 nM each time.
